From patent publication US11040937B2, “Amide derivative” (TOHOKU UNIVERSITY, priority 2014, dated 2021)
Like-named read-outs stand apart in the source and are kept apart here.

Key:
[1] = tested on: A549/OPNluc cells; test: WST assay for cell growth / cell viability; format: cell-based, human; details: Homo sapiens, A549, A549/OPNluc cells, 48±4 hours, WST-1; read-out: IC50 (concentration for 50% inhibition of cell growth)
Source text: (§1) A reporter vector pOPN1-luc obtained by the insertion of a human OPN promoter sequence (−765 to 23) into the multiple cloning site of pGL-3 basic vector (Promega) expresses luciferase when transfected into animal cells. The pOPN1-luc was transfected into a human non-small cell lung cancer-derived cell line A549 together with pPUR (Clontech) that expresses a puromycin resistance gene (puromycin-N-acetyl-transferase gene), and then cells expressing luciferase which could grow a puromycin-supplemented medium were selected. The selected cells were named “A549/OPNluc cells” and used for observation of luciferase expression inhibitory effect under control of OPN promoter, as described below.
(§2) A test compound was added to a culture containing A549/OPNluc cells to observe its influence on the amount of luciferase expressed in the cells. Here, it can be considered that when the test compound has a cell cytotoxity or cell growth inhibitory effect, the total expression level of luciferase is reduced due to a reduction in the number of living cells that depends on the concentration of the test compound, and therefore the luciferase expression inhibitory effect of the test compound under control of OPN promoter cannot be properly evaluated. For this reason, WST assay for quantification of cell proliferation ability or cell viability by colorimetric measurement was firstly performed to determine IC50 (concentration for 50% inhibition of cell growth) of the test compound for cell growth. Then, luciferase activity measurement was performed to determine EC50 (concentration for 50% inhibition of luciferase expression) of the test compound for luciferase expression under control of OPN promoter.
A549/OPNluc cells were suspended in DMEM medium containing 10% fetal calf serum (FCS) and 1% penicillin/streptomycin (P/S) at 3×10^4 cells/mL to obtain a cell suspension, and then the cell suspension was dispensed into each well of a 96-well plate in an amount of 100 μL. In order to perform the assay in triplicate, wells were prepared for a control group, and 3 wells were prepared for each test compound-treated group at each concentration. After the dispensation, the 96-well plate was incubated in a CO2 incubator (at 37° C. and 5% CO2) for 24±4 hours.
The present compound was dissolved in dimethylsulfoxide (DMSO) to obtain a 50 mmol/L solution, and the compound solution was stored at −80° C. The compound solution was diluted with DMSO in 2-fold dilution series (usually, in the range of 0.31 mmol/L to 20 mmol/L) to prepare test compound solutions whose concentration varied by two fold for WST assay.
Each solution of only DMSO (control) and the diluted test compound (sample) was dispensed into each well containing the cell suspension in an amount of 0.5 μL (200-fold dilution). The solution in each well was mixed with a vortex mixer, and then the 96-well plate was incubated in a CO2 incubator (at 37° C. and 5% CO2) for 48±4 hours. Then, Premix WST-1 Reagent (TAKARA BIO INC.) was added in an amount of 10 μL to each well. The solution in each well was mixed with a vortex mixer, and then the 96-well plate was incubated at 37° C. and 5% CO2. After 60 minutes or 120 minutes, the absorbance values (450 nm) were measured with a microplate reader (Bio-Rad; Benchmark or Thermo Scientific; Varioskan Flash).
The absorbance values of the control wells and the sample wells at each concentration were input into an Excel file to determine the percentages of absorbance values of the sample wells at each concentration with to the average absorbance value of the control wells. From the determined values, a fitted curve was determined by the method of least squares to calculate IC50.

[2] = tested on: human OPN promoter (pOPN1-luc) in A549/OPNluc cells; test: Luciferase assay: luciferase expression under control of OPN promoter; format: cell-based; details: Homo sapiens
Source text: as §1, §2
The same steps as in the above-mentioned WST assay were performed in which each solution of only DMSO (control) or the diluted test compound (sample) was added in an amount of 0.5 μL to each well containing the cell suspension to achieve 200-fold dilution, and the solution in each well was mixed with a vortex mixer, and the 96-well plate was incubated in a CO2 incubator (at 37° C. and 5% CO2) for 48±4 hours.
Luciferase Assay Substrate (hereinafter referred to as “LAS”) supplied in Luciferase Assay Systems (Promega: Cat #E1500) was dissolved in Luciferase Assay Buffer (LAB) to prepare a luciferase reagent. 5×Cell Culture Lysis Reagent (hereinafter referred to as “CCLR”) was diluted by 5 times with water to prepare 1×CCLR.
After the incubation for 48±4 hours, the medium in each well was completely removed, and 1×CCLR was dispensed into each well in an amount of 50 μL. The 96-well plate was allowed to stand at room temperature for 30 minutes, and then 1×CCLR in each well was used as an assay sample. The luciferase reagent (100 μL) was placed in a tube for chemiluminescence measurement, and the assay sample (20 μL) was added to the tube and mixed with the luciferase reagent to measure chemiluminescence (Relative Luminescence Intensity: RLU) using TB 20/20 (Promega) or GloMax 20/20 (Promega).
The RLU values of the control wells and the sample wells at each concentration were input into an Excel file, and the percentages of RLU values of the sample wells at each concentration to the average RLU value of the control wells were determined. From these values, a fitted curve was determined by the method of least squares to calculate EC50. Also, the percentages of RLU values of the sample wells at each concentration to the average RLU value of the control wells were divided by the percentages of absorbance values of the compounds in WST assay at the same concentrations as those of this assay (to the control), and a fitted curve was determined from the calculated values by the method of least squares to calculate corrected EC50.

[3] = A549, A549/OPNluc cells, 48±4 hours, read-out: EC50 (concentration for 50% inhibition of luciferase expression)
[4] = A549, EC50 corrected for decrease in viable cells (RLU % divided by WST %), read-out: corrected EC50

## COc1ccc(Oc2cccc(C(=O)CCNC(=O)c3ccc(O)cc3)c2N)cc1 [Compound 6, N-(3-(2-Amino-3-(4-methoxyphenoxy)phenyl)-3-oxopropyl)-4-hydroxybenzamide]
[1]
  IC50: 66 µM
[2]; [3]
  EC50: 8.9 µM
[2]; [4]
  EC50: 10.2 µM

## Nc1ccc(C(=O)NCCC(=O)c2cccc(Oc3ccc(Cl)cc3)c2N)cc1 [Compound 19, N-(3-(2-Amino-3-(4-chlorophenoxy)phenyl)-3-oxopropyl)-4-aminobenzamide]
[1]
  IC50: > 100 µM
[2]; [3]
  EC50: 6.8 µM
[2]; [4]
  EC50: 7.8 µM

## COc1ccc(Oc2cccc(NC(=O)CCNC(=O)c3ccc(O)cc3)c2)cc1 [Compound 26, N-(3-(3-(4-Methoxyphenoxy)phenylamino)-3-oxopropyl)-4-hydroxybenzamide]
[1]
  IC50: 86.2 µM
[2]; [3]
  EC50: 20.3 µM
[2]; [4]
  EC50: 27.1 µM

## O=C(CCNC(=O)c1ccc(O)cc1)Nc1cccc(Oc2ccc(Cl)c(Cl)c2)c1 [Compound 38, N-(3-(3-(3,4-dichlorophenoxy)phenylamino)-3-oxopropyl)-4-hydroxybenzamide]
[1]
  IC50: 17.3 µM
[2]; [3]
  EC50: 4.6 µM
[2]; [4]
  EC50: 7.5 µM
